These results are taken from ChEMBL document CHEMBL1128128, “Relationship between structure and bioavailability in a series of hydroxamate based metalloprotease inhibitors” (Bioorg Med Chem Lett, 1995).

Data set [1] is described as follows: Plasma half-life in rats. It is filed as ADME, organism-based. Particulars: rat.
For the next data set, the target named is T1, Interstitial collagenase (Homo sapiens, UniProt P03956).
T1 sequence (P03956 whole entry): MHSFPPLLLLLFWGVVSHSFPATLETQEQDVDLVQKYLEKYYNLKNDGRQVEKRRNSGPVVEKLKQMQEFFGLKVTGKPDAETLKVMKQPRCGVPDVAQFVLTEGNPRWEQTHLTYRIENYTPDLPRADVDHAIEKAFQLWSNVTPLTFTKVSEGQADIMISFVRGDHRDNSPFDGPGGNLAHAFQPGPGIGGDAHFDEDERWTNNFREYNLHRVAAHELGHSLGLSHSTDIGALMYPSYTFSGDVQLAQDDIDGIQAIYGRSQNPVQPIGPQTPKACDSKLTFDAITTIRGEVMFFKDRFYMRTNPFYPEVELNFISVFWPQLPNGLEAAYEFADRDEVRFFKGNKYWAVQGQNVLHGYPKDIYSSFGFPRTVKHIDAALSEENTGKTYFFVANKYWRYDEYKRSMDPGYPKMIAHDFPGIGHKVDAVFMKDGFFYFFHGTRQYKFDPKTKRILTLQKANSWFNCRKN
As to the kind of experiment: Evaluated for inhibitory activity against Human fibroblast collagenase (HFC).

Data set [2] can be described thus: Biliary excretion when administered intravenously at a dose of 5 mg/kg in rats. The format is ADME, organism-based. Also noted: dose 5 mg/kg, route intravenous. Particulars: rat, bile, iv, read-out: Biliary excretion.
A short description of data set [3]: Biliary excretion when administered intravenously at a dose of 2.5 mg/kg in rats. The format is ADME, organism-based. Also noted: dose 2.5 mg/kg, route intravenous. Particulars: rat, bile, iv, read-out: Biliary excretion.
For another data set, the species on record is Rattus norvegicus. Description: Plasma half-life in rats; <MQL. Particulars: in vivo. It is filed as ADME, organism-based.
Data set [4] in a line: Plasma half-life was determined. It is filed as ADME, cell-free.
Data set [5] is described as follows: Maximum concentration in portal vein was determined at a concentration of 10 mg/kg in rats. It is filed as ADME, organism-based. Also noted: dose 10 mg/kg. Conditions: rat, portal vein blood.
A short description of data set [6]: Maximum concentration in portal vein was determined at a concentration of 20 mg/kg in rats. It is filed as ADME, organism-based. Further details: dose 20 mg/kg. Particulars: rat, portal vein blood.

Regarding `CC(C)C[C@H](CC(=O)NO)C(=O)N[C@@H](Cc1c[nH]c2ccccc12)C(=O)NCCCCC(=O)O`, the half-life in data set [1] came to 6.9 min. This compound returned a Ki at Interstitial collagenase of 1 nM. The dose excreted in data set [2] amounted to 108%.
In the same order, the values of `CC(C)C[C@H](CC(=O)NO)C(=O)N[C@@H](Cc1c[nH]c2ccccc12)C(=O)NCC[S+](C)[O-]` (stereo not given in full) are 7.4 min, 2 nM and 44.8%.
`CC(C)C[C@H](CC(=O)NO)C(=O)N[C@@H](Cc1c[nH]c2ccccc12)C(=O)NCCCCN(C)C` came in with a half-life in data set [1] of 26.6 min. In addition, the dose excreted in data set [3] came to 17.9%. Besides, the affinity on Interstitial collagenase corresponds to a Ki of 3 nM.
For the compound `CC(C)C[C@H](CC(=O)NO)C(=O)N[C@@H](Cc1c[nH]c2ccccc12)C(=O)NCc1ccc(CN(C)C)cc1`, the dose excreted in data set [3] was 80.7%. This compound also returned a Ki at Interstitial collagenase of 4 nM. Besides, the T1/2 entry in the data set filed under Rattus norvegicus is “<MQL”.
As to `CC(C)C[C@H](CC(=O)NO)C(=O)N[C@@H](Cc1c[nH]c2ccccc12)C(=O)NCCS(N)(=O)=O`, the half-life in data set [1] turned out to be 17.6 min. This compound also had an inhibition constant Ki on Interstitial collagenase of 6 nM. In addition, the dose excreted in data set [2] came to 61.3%.
Turning to `CC(C)C[C@H](CC(=O)NO)C(=O)N[C@@H](Cc1c[nH]c2ccccc12)C(=O)NCCN(C)C`, the half-life in data set [4] turned out to be 21 min. Further, the Ki at Interstitial collagenase is 12 nM. In addition, in data set [2], the dose excreted was determined as 18.9%.
In data set [1], `COc1ccc(C(=O)CCCCNC(=O)[C@H](Cc2c[nH]c3ccccc23)NC(=O)[C@@H](CC(=O)NO)CC(C)C)cc1` registered a half-life of 2.5 min. The affinity on Interstitial collagenase, expressed as Ki, was 2 nM. In data set [2], the dose excreted was determined as 74.5%.
Taken in the same sequence, the figures for `CC(C)C[C@H](CC(=O)NO)C(=O)N[C@@H](Cc1c[nH]c2ccccc12)C(=O)NCCCN(C)C` were 25 min, 3 nM and 18.1%.
As for `CC(C)C[C@H](CC(=O)NO)C(=O)N[C@@H](Cc1c[nH]c2ccccc12)C(=O)NCCSCCN(C)C`, the half-life in data set [1] turned out to be 43.7 min. The highest level in data set [5] (Cmax) was 2800 ng/mL. In addition, the inhibitory constant (Ki) at Interstitial collagenase came to 5 nM. In data set [2], the dose excreted is 60.8%.
On to `CCSCCNC(=O)[C@H](Cc1c[nH]c2ccccc12)NC(=O)[C@@H](CC(=O)NO)CC(C)C`, for which the half-life in data set [1] amounted to 37.6 min. The compound further yielded a Cmax in data set [6] of 900 ng/mL. Further, the inhibition constant (Ki) at Interstitial collagenase was 3 nM. The dose excreted in data set [2] came to 46%.
`CC(C)C[C@H](CC(=O)NO)C(=O)N[C@@H](Cc1c[nH]c2ccccc12)C(=O)NCCSc1ccccc1` gave a half-life in data set [1] of 33.3 min. The inhibition constant (Ki) on Interstitial collagenase amounted to 3 nM. Further, the dose excreted in data set [2] amounted to 43.9%.
Taken in the same sequence, the figures for `CSCCNC(=O)[C@H](Cc1c[nH]c2ccccc12)NC(=O)[C@@H](CC(=O)NO)CC(C)C` were 32.4 min, 5 nM and 27.3%.
In the same order, the values of `CC(C)C[C@H](CC(=O)NO)C(=O)N[C@@H](Cc1c[nH]c2ccccc12)C(=O)NCCSCCN1CCOCC1` are 42.5 min, 4 nM and 30.8%.
As to `CNC(=O)[C@H](Cc1ccc(OC)cc1)NC(=O)[C@@H](CC(=O)NO)CC(C)C`, the half-life in data set [1] is 9 min. In addition, in data set [2], the dose excreted was determined as 84.1%.
As for `CSCCCNC(=O)[C@H](Cc1c[nH]c2ccccc12)NC(=O)[C@@H](CC(=O)NO)CC(C)C`, in data set [1], the half-life was found to be 37 min. Also, the inhibitory constant (Ki) on Interstitial collagenase came to 1 nM. Also, the dose excreted in data set [2] was 53%.
Taken in the same sequence, the figures for `CC(C)C[C@H](CC(=O)NO)C(=O)N[C@@H](Cc1c[nH]c2ccccc12)C(=O)NCCCCOCc1ccccc1` were 27 min, 2 nM and 99.9%.
With `CC(C)C[C@H](CC(=O)NO)C(=O)N[C@@H](Cc1c[nH]c2ccccc12)C(=O)NCCS(C)(=O)=O`, the half-life in data set [1] came to 24 min. The same compound had a Ki at Interstitial collagenase of 3 nM. Further, the dose excreted in data set [2] came to 67.2%.
In the same order, the values of `COCCNC(=O)[C@H](Cc1c[nH]c2ccccc12)NC(=O)[C@@H](CC(=O)NO)CC(C)C` are 19 min, 5 nM and 59.2%.
